The record followed here is article PMC7217877, “N-AS-triggered SPMs are direct regulators of microglia in a model of Alzheimer’s disease” (Nature Communications, 2020).

Where “and” joins values, the source holds several entries; their conditions need not be identical. Equal entries are not always repeated.

The assay relates to APP/PS1 mice. The assay can be described thus: ac-S565 COX2 in microglia and neuron of treated mice (immunofluorescence, western blot, Fig 4c,d). Type of assay: in vivo, mouse. To be noted: APP/PS1 + N-AS, individual values. The text has this:
Adult neurons and microglia were isolated from the mice brain as previously described. In brief, the cortex of WT (1, 3, 5, or 9-months-old), APP/PS1 (1, 3, 5, or 9-months-old), APP/PS1 treated with N-AS (9-months-old) or APP/PS1 treated with aspirin (9-months-old) mice were minced in Hibernate A (Gibco)/B27 (Invitrogen) medium and dissociated using papain (Worthington) solution. After tissue trituration, cells were separated by Optiprep (Sigma-Aldrich) density gradient centrifugation. The purity of the fractionated neurons and microglia were acutely confirmed by neuronal (NeuN, mouse, 1:200, Millipore, MAB377) and microglial (Iba1, rabbit, 1:1000, Wako, 019-19941) markers and the isolated neurons and microglia were acutely analyzed for the acetylation assay and lipid mediators metabololipidomics.
Thioflavin S (Sigma-Aldrich) staining was carried out according to previously described procedures. We used 6E10 (mouse, 1:100, Signet, SIG39300), anti-20G10 (mouse, 1:1000, provided by D. R. Howlett, GlaxoSmithKline, Harlow, Essex, UK) for Aβ42, anti-G30 (rabbit, 1:1000, provided by D. R. Howlett) for Aβ40, SMA (mouse, 1:400, Sigma-Aldrich, A2547), AT8 (mouse, 1:500, Thermo Fisher Scientific, MN1020), Caspase-3 (mouse, 1:200, Novus Biologicals, NB100-56708), ac-S565 (rabbit, 1:100), COX2 (mouse, 1:250, Thermo Fisher Scientific, 35-8200), Iba1 (rabbit, 1:500, Wako, 019-19941 and goat, Abcam, ab5076), NeuN (mouse, 1:500, Millipore, MAB177), GFAP (rabbit, 1:500, Dako, N1506 and chicken, 1:500, Abcam, ab4674), and Lamp1 (mouse, 1:200, Abcam, ab24170). The sections were analyzed with a laser-scanning confocal microscope (FV3000; Olympus) or with a BX51 microscope (Olympus). MetaMorph software (Molecular Devices) was used to quantification. Three-dimensional reconstruction of microglia was recorded and analyzed using IMARIS software (Bitplane)[11]. […]
Samples were lysed in RIPA buffer (Cell signaling Technologies), then subjected to SDS-PAGE and transferred to a nitrocellulose membrane. […] We performed densitometric quantification using the ImageJ software (National Institutes of Health). […]
(In general: In western blotting, separated proteins are transferred to a membrane and probed.)

As to `CCCCCCCCCCCCC/C=C/[C@@H](O)[C@H](CO)NC(C)=O` [N-AS, N-((2S,3R,E)-1,3-Dihydroxyoctadec-4-en-2-yl)acetamide], the “microglia (Iba1) with ac-S565 and COX2 in cortex, quantification (Fig 4c)” value was 2.146 and 2.677 and 1.427 and 1.497 and 1.3659 and 1.3538. For the same molecule, the “ac-S565 / total COX2, western blot (Fig 4d)” value (Microglia) was 1.271 and 0.7861 and 0.8284 and 0.7309 and 1.0567 and 1.371. In addition, for the setting “Neuron”, the “ac-S565 / total COX2, western blot (Fig 4d)” value is 0.9062 and 0.3691 and 0.5034 and 0.9834 and 0.3378 and 0.4586.
